Species: Rattus norvegicus
Assay type: toxicity, organism-based, Sprague-Dawley
Conditions: in vivo, ip, route intraperitoneal, vehicle 100 % SALINE; for ABSOLUTE EOSINOPHIL / ABSOLUTE LYMPHOCYTE / ABSOLUTE MONOCYTE / ABSOLUTE SEGMENTED NEUTROPHIL / BASOPHIL / EOSINOPHIL / ERYTHROCYTE COUNT / HEMATOCRIT / HEMOGLOBIN / LEUKOCYTE COUNT / LYMPHOCYTE / MEAN CORPUSCULAR HEMOGLOBIN / MEAN CORPUSCULAR HEMOGLOBIN CONCENTRATION / MEAN CORPUSCULAR VOLUME / MONOCYTE / NEUTROPHIL / NUCLEATED RED BLOOD CELLS / PLATELET COUNT: tissue Blood; for ALANINE AMINOTRANSFERASE / ALBUMIN / ALKALINE PHOSPHATASE / ASPARTATE AMINOTRANSFERASE / BLOOD UREA NITROGEN / CARBON DIOXIDE / CHLORIDE / CHOLESTEROL / CREATINE PHOSPHOKINASE / CREATININE / GLUCOSE / LACTATE DEHYDROGENASE / LIPASE / PHOSPHORUS / POTASSIUM / SODIUM / TOTAL BILIRUBIN / TOTAL PROTEIN / URIC ACID: tissue Plasma
[1] = 0 mg/kg, 6 h, vehicle control, dose level Control, time 0.25 day
[2] = 0 mg/kg, 24 h, vehicle control, dose level Control, time 1 day
[3] = 16 mg/kg, 6 h, dose level Low, time 0.25 day

Description: DrugMatrix - Regimen: Single

C=CCO [ALLYL ALCOHOL]
ABSOLUTE EOSINOPHIL [1]: 63 CELLS/uL | ABSOLUTE LYMPHOCYTE [1]: 12886.67 CELLS/uL | ABSOLUTE MONOCYTE [1]: 302.5 CELLS/uL | ABSOLUTE SEGMENTED NEUTROPHIL [1]: 2997.83 CELLS/uL | BASOPHIL [1]: 0% | EOSINOPHIL [1]: 0.33% | ERYTHROCYTE COUNT [1]: 5.45 x10E6/uL | HEMATOCRIT [1]: 34.93% | HEMOGLOBIN [1]: 13.88 G/DL | LEUKOCYTE COUNT [1]: 16.25 x10E3/uL | LYMPHOCYTE [1]: 79.17% | MEAN CORPUSCULAR HEMOGLOBIN [1]: 25.48 pg | MEAN CORPUSCULAR HEMOGLOBIN CONCENTRATION [1]: 39.77 G/DL | MEAN CORPUSCULAR VOLUME [1]: 64.13 fL | MONOCYTE [1]: 1.83% | NEUTROPHIL [1]: 18.67% | NUCLEATED RED BLOOD CELLS [1]: 0 /100WBC | PLATELET COUNT [1]: 1184.67 x10E3/uL | ALANINE AMINOTRANSFERASE [1]: 35 u/L | ALBUMIN [1]: 4.25 G/DL | ALKALINE PHOSPHATASE [1]: 281.83 u/L | ASPARTATE AMINOTRANSFERASE [1]: 79.5 u/L | BLOOD UREA NITROGEN [1]: 11.67 mg/dL | CARBON DIOXIDE [1]: 27 mmol/L | CHLORIDE [1]: 100.33 MEQ/L | CHOLESTEROL [1]: 60.67 mg/dL | CREATINE PHOSPHOKINASE [1]: 275.5 u/L | CREATININE [1]: 0.13 mg/dL | GLUCOSE [1]: 162.5 mg/dL | LACTATE DEHYDROGENASE [1]: 258.83 u/L | LIPASE [1]: 9.33 u/L | PHOSPHORUS [1]: 11.42 mg/dL | POTASSIUM [1]: 6.16 MEQ/L | SODIUM [1]: 145.08 MEQ/L | TOTAL BILIRUBIN [1]: 0.18 mg/dL | TOTAL PROTEIN [1]: 5.73 G/DL | URIC ACID [1]: 1.58 mg/dL | ABSOLUTE EOSINOPHIL [2]: 18.5 CELLS/uL | ABSOLUTE LYMPHOCYTE [2]: 12859.83 CELLS/uL | ABSOLUTE MONOCYTE [2]: 190.83 CELLS/uL | ABSOLUTE SEGMENTED NEUTROPHIL [2]: 1230.83 CELLS/uL | BASOPHIL [2]: 0% | EOSINOPHIL [2]: 0.17% | ERYTHROCYTE COUNT [2]: 5.2 x10E6/uL | HEMATOCRIT [2]: 33.25% | HEMOGLOBIN [2]: 13.37 G/DL | LEUKOCYTE COUNT [2]: 14.3 x10E3/uL | LYMPHOCYTE [2]: 89.83% | MEAN CORPUSCULAR HEMOGLOBIN [2]: 25.73 pg | MEAN CORPUSCULAR HEMOGLOBIN CONCENTRATION [2]: 40.25 G/DL | MEAN CORPUSCULAR VOLUME [2]: 64 fL | MONOCYTE [2]: 1.33% | NEUTROPHIL [2]: 8.67% | NUCLEATED RED BLOOD CELLS [2]: 0 /100WBC | PLATELET COUNT [2]: 1075.5 x10E3/uL | ALANINE AMINOTRANSFERASE [2]: 54.17 u/L | ALBUMIN [2]: 4.25 G/DL | ALKALINE PHOSPHATASE [2]: 280.67 u/L | ASPARTATE AMINOTRANSFERASE [2]: 84.67 u/L | BLOOD UREA NITROGEN [2]: 13.33 mg/dL | CARBON DIOXIDE [2]: 26.33 mmol/L | CHLORIDE [2]: 99.67 MEQ/L | CHOLESTEROL [2]: 72 mg/dL | CREATINE PHOSPHOKINASE [2]: 620 u/L | CREATININE [2]: 0.17 mg/dL | GLUCOSE [2]: 169.17 mg/dL | LACTATE DEHYDROGENASE [2]: 189.17 u/L | LIPASE [2]: 9.67 u/L | PHOSPHORUS [2]: 10.57 mg/dL | POTASSIUM [2]: 5.16 MEQ/L | SODIUM [2]: 142.2 MEQ/L | TOTAL BILIRUBIN [2]: 0.18 mg/dL | TOTAL PROTEIN [2]: 5.78 G/DL | URIC ACID [2]: 1.25 mg/dL | ABSOLUTE EOSINOPHIL [3]: 48.67 CELLS/uL | ABSOLUTE LYMPHOCYTE [3]: 11033.33 CELLS/uL | ABSOLUTE MONOCYTE [3]: 230.5 CELLS/uL | ABSOLUTE SEGMENTED NEUTROPHIL [3]: 2270.83 CELLS/uL | BASOPHIL [3]: 0% | EOSINOPHIL [3]: 0.33% | ERYTHROCYTE COUNT [3]: 5.38 x10E6/uL | HEMATOCRIT [3]: 34.4% | HEMOGLOBIN [3]: 13.45 G/DL | LEUKOCYTE COUNT [3]: 13.58 x10E3/uL | LYMPHOCYTE [3]: 81.17% | MEAN CORPUSCULAR HEMOGLOBIN [3]: 25.12 pg | MEAN CORPUSCULAR HEMOGLOBIN CONCENTRATION [3]: 39.12 G/DL | MEAN CORPUSCULAR VOLUME [3]: 64.18 fL | MONOCYTE [3]: 1.67% | NEUTROPHIL [3]: 16.83% | NUCLEATED RED BLOOD CELLS [3]: 0 /100WBC | PLATELET COUNT [3]: 997.5 x10E3/uL | ALANINE AMINOTRANSFERASE [3]: 66.83 u/L | ALBUMIN [3]: 4.27 G/DL | ALKALINE PHOSPHATASE [3]: 267.67 u/L | ASPARTATE AMINOTRANSFERASE [3]: 90 u/L | BLOOD UREA NITROGEN [3]: 9.33 mg/dL | CARBON DIOXIDE [3]: 28.5 mmol/L | CHLORIDE [3]: 100.17 MEQ/L | CHOLESTEROL [3]: 68 mg/dL | CREATINE PHOSPHOKINASE [3]: 295 u/L | CREATININE [3]: 0.14 mg/dL | GLUCOSE [3]: 153.5 mg/dL | LACTATE DEHYDROGENASE [3]: 198.83 u/L | LIPASE [3]: 11.83 u/L | PHOSPHORUS [3]: 10.27 mg/dL | POTASSIUM [3]: 5.27 MEQ/L | SODIUM [3]: 144.05 MEQ/L | TOTAL BILIRUBIN [3]: 0.1 mg/dL | TOTAL PROTEIN [3]: 5.6 G/DL | URIC ACID [3]: 1.15 mg/dL
